Test results as given in patent US20240041877A1, “DOSAGE REGIME AND METHOD FOR TREATING PULMONARY ARTERIAL HYPERTENSION” (Altavant Sciences GmbH, priority 2019, published 2024).

What was measured:
[1] = tested on: urine 5-HIAA (a PD marker of 5-HT synthesis); experiment: Part 2 (MAD) biomarker: urine 5-HIAA/24 hours (measured, adjusted, estimated, per gram creatinine); assay type: in vivo, human; details: all doses pooled; Day 14; no creatinine adjustment
Source text: (§1) Biomarkers were to be evaluated in Part 2 by measuring concentrations of serotonin (5-hydroxytryptamine [5-HT]) in serum and 5-hydroxyindoleacetic acid (5-HIAA) in plasma and urine. As well, the relationship of biomarkers to PK parameters was to be evaluated.
(§2) The biomarker analysis was to be based on the Biomarker Population (all subjects with evaluable biomarker measurements at baseline [Day 1 predose] and at least one after dosing [Day 7 or Day 14]).
(§3) Biomarker data were to be collected only in Part 2. The following biomarkers were to be analyzed: • Serum 5-HT • Plasma 5-HIAA • Urine 5-HIAA/24 hours (as measured, adjusted, estimated, and per gram creatinine)
(§4) Summary statistics (mean, standard deviation [SD], median, minimum [Min], and maximum [Max]) were to be tabulated for each biomarker, by Cohort, with absolute and relative (%) changes from Day 1 predose.
(§5) The values were to be tabulated with P values testing whether the difference of changes was equal to 0.
(§6) The biomarker portion of the study was conducted in Part 2 MAD using the Biomarker Population. The biomarkers evaluated were serum 5-HT and plasma 5-HIAA, as well as urine 5-HIAA/24 hours (as measured, adjusted, estimated, and per gram creatinine). Urinary 5-HIAA was determined by a validated (21 C.F.R. 58, GLP-compliant) method using liquid chromatographic separation and tandem mass spectrometry detection.
Urine 5 HIAA/24 hour was analyzed in 4 different manners: as measured in the 24-hour collection and (in order to correct for any collection errors) adjusted for creatinine excretion, estimated by the expected creatinine excretion for the subject (as defined in and expressed per gram creatinine. Results were similar for each of the 4 manners and are presented in this report for measured urine. Tables and figures for adjusted, estimated, and per-gram creatinine results are presented in Section 14.

clinical = details: human
Source text: Food effect was to be evaluated in Part 1, Period 2.
Pharmacokinetic data were to be summarized descriptively.

serum 5-HT = experiment: Part 2 (MAD) biomarker: serum 5-HT change from Day 1 predose; assay type: in vivo, human
Source text: as §1, §2, §3, §4, §5, §6

[2] = Safety and tolerability in healthy adult subjects (SAD and MAD); assay type: in vivo, human
[3] = Part 1 (SAD): urine pharmacokinetics (amount excreted, renal clearance) after a single oral dose of KAR5585; assay type: in vivo, human
[4] = all doses pooled, predose Day 7
[5] = all doses pooled, predose Day 14
[6] = KAR5585 in urine, 1200 mg KAR5585 single oral dose, mean

In the case of `CCOC(=O)[C@@H]1CC2(CCN(c3cc(O[C@H](c4ccc(Cl)cc4-c4ccccc4)C(F)(F)F)nc(N)n3)CC2)CN1` [KAR5585, (S)-ethyl 8-(2-amino-6-((R)-1-(5-chloro-[1,1′-biphenyl]-2-yl)-2,2,2-trifluoroethoxy)pyrimidin-4-yl)-2,8-diazaspiro[4.5]decane-3-carboxylate], the “Measured urine 5-HIAA: mean difference of % change from Day 1 between KAR5585 and placebo” value [1] is reported as −36.39%, the “Measured urine 5-HIAA: mean difference of absolute change from Day 1 between KAR5585 and placebo” value [1] is reported as −1.54 mg/24 hours and the half-life (clinical; in vivo, 400 mg) is reported as 3.14 h. The Cmax (clinical; in vivo, 400 mg/dose) was 110 ng/mL, the Cmax at 1 day (clinical; plasma, oral, 100 mg) was 16.7 ng/mL and the Cmax at 14 day (clinical; plasma, oral, 100 mg) was 21.3 ng/mL. For the same molecule, the AUC(0-inf) (clinical; plasma, oral, 100 mg/dose) was 54.1 ng·h/mL, the AUC(0-t) (clinical; plasma, oral, 100 mg/dose) was 50.8 ng·h/mL and the Cmax (clinical; plasma, oral, 100 mg/dose) was 15.8 ng/mL. It also gave a Tmax (clinical; plasma, oral, 100 mg/dose) of 1 h, a Vd/F (clinical; plasma, oral, 100 mg/dose) of 4620 L and a half-life (clinical; plasma, oral, 100 mg/dose) of 1.73 h. It also gave an AUC(0-inf) (clinical; plasma, oral, 400 mg) of 305 ng·h/mL, a Tmax (clinical; plasma, oral, 400 mg) of 2 h and an AUC(0-inf) (clinical; plasma, oral, 400 mg/dose) of 482 ng·h/mL. For the same molecule, the Cmax (clinical; plasma, oral, 400 mg/dose) was 89 ng/mL, the concentration at 12 h (clinical; plasma, oral, 400 mg/dose) was 11.4 ng/mL and the half-life (clinical; plasma, oral, 400 mg/dose) was 6.45 h. The “Serum 5-HT: mean difference of % change from Day 1 between KAR5585 and placebo” value (“Serum 5-HT: mean difference of % change” below) (serum 5-HT; 100 mg fasting, predose Day 7) was −10.97%, the “Serum 5-HT: mean difference of absolute change from Day 1 between KAR5585 and placebo” value (serum 5-HT; 100 mg fasting, predose Day 7) was -12.97 ng/mL and the “Serum 5-HT: mean difference of % change” value (serum 5-HT; 100 mg fasting, predose Day 14) was −15.92%. For the same molecule, the “Serum 5-HT: mean difference of absolute change from Day 1 between KAR5585 and placebo” value (serum 5-HT; 100 mg fasting, predose Day 14) was -17.39 ng/mL, the “Serum 5-HT: mean difference of % change” value (serum 5-HT; 100 mg fed, predose Day 7) was −11.02% and the “Serum 5-HT: mean difference of absolute change from Day 1 between KAR5585 and placebo” value (serum 5-HT; 100 mg fed, predose Day 7) was -15.75 ng/mL. For the same molecule, the “Serum 5-HT: mean difference of % change” value (serum 5-HT; 100 mg fed, predose Day 14) was −0.47%, the “Serum 5-HT: mean difference of absolute change from Day 1 between KAR5585 and placebo” value (serum 5-HT; 100 mg fed, predose Day 14) was 5.08 ng/mL and the “Serum 5-HT: mean difference of % change” value (serum 5-HT; 200 mg fed, predose Day 7) was −21.64%. The “Serum 5-HT: mean difference of absolute change from Day 1 between KAR5585 and placebo” value (serum 5-HT; 200 mg fed, predose Day 7) was -28.53 ng/mL, the “Serum 5-HT: mean difference of % change” value (serum 5-HT; 200 mg fed, predose Day 14) was −11.43% and the “Serum 5-HT: mean difference of absolute change from Day 1 between KAR5585 and placebo” value (serum 5-HT; 200 mg fed, predose Day 14) was -5.79 ng/mL. The “Serum 5-HT: mean difference of % change” value (serum 5-HT; 400 mg fed, predose Day 7) was 2.09%, the “Serum 5-HT: mean difference of absolute change from Day 1 between KAR5585 and placebo” value (serum 5-HT; 400 mg fed, predose Day 7) was 16.47 ng/mL and the “Serum 5-HT: mean difference of % change” value (serum 5-HT; 400 mg fed, predose Day 14) was −50.02%. For the same molecule, the “Serum 5-HT: mean difference of absolute change from Day 1 between KAR5585 and placebo” value (serum 5-HT; 400 mg fed, predose Day 14) was -84.50 ng/mL, the “mean difference vs placebo of percent changes from Day 1 in serum 5-HT concentration, significance” value (serum 5-HT; Day 7) was “statistically significant compared to placebo on Day 7 in favor of the 200 mg fed dose group” and the “Serum 5-HT: mean difference of % change” value (serum 5-HT; [4]) was −10.39%. The “Serum 5-HT: mean difference of absolute change from Day 1 between KAR5585 and placebo” value (serum 5-HT; [4]) was -10.19 ng/mL, the “Serum 5-HT: mean difference of % change” value (serum 5-HT; [5]) was −20.26% and the “Serum 5-HT: mean difference of absolute change from Day 1 between KAR5585 and placebo” value (serum 5-HT; [5]) was -27.14 ng/mL. For the same molecule, the safety and tolerability ([2]; 100 mg (fasting), 100, 200, 400 mg (fed) BID up to 14 days, 36 healthy adult subjects) was “safe and well-tolerated”, the tolerability ([2]; 400 mg single oral dose, fed, 9 healthy adult subjects) was “well-tolerated” and the “tolerability, whole trial” value ([2]; Part 1 and Part 2, all doses) was “well tolerated throughout the trial”. The safety and tolerability ([2]; single ascending oral dose 100-2000 mg, fasting, 54 healthy adult subjects) was “safe and well-tolerated”, the “Amount Excreted (Ae)” value [3, 6] was 0 µg and the “Total Excreted (%)” value [3, 6] was 0%. The “Total Excreted (%)” value ([3]; KAR5585 in urine, 2000 mg KAR5585 single oral dose, mean) was 0.0000751%, the CL renal ([3]; human, urine, po, 400 mg, KAR5585, 400 mg (Fasted) KAR5585 single oral dose, mean) was 0.858 mL/min and the “amount excreted (Ae) in urine” value ([3]; single oral KAR5585, all dose levels) was “less than 0.004 % of the administered dose”.
